Read-outs that look alike come from different tables or passages of the source.
Experiments:
Format in all cases: cell-based
[1] = system: IL-8; assay: inhibition of IL-1β-induced IL-8 release in SW1353 chondrocyte cells (ELISA); settings: Homo sapiens, SW1353, 24 h, read-out: IC50, concentration reducing the release of IL-8 50%
Experimental: Glucocorticoids have anti-inflammatory efficacy in a variety of cell models. Clinically, glucocorticoids set the benchmark for anti-inflammatory therapeutics.
For efficacy testing, 10,000 SW1353 cells (ATCC# HTB-94) were plated in 96 well plates in DMEM with 10% Fetal Bovine Serum (FBS). The next day media was changed to DMEM without serum.
After 24 hours the amount of MMP13 and IL-8 released into the media was quantified using commercial ELISA assays (Amersham and R&D Systems, respectively).
The concentration of compound reducing the release of MMP13 or IL-8 50% (IC50) was determined from the plot of the drug dose vs. percent inhibition relative to the vehicle control.

[2] = system: MMP13; assay: inhibition of IL-1β-induced MMP13 release in SW1353 chondrocyte cells (ELISA); settings: Homo sapiens, read-out: IC50, concentration reducing the release of MMP13 50%
[3] = system: primary human osteoblasts; assay: alkaline phosphatase assay in primary human osteoblasts; settings: 13 days of treatment
Experimental: For alkaline phosphatase testing, primary human osteoblasts (Biowhittaker CC-2538) were plated at a density of 4,400 cells per well in 24-well plates containing OGM medium (Biowhittaker CC-3207) with 10% Fetal Bovine Serum (FBS). The next day media was changed to OGM medium supplemented with 0.1 mM ascorbic acid and 10 mM □-glycerophosphate (differentiation supplements, Biowhittaker CC-4194), and treated with reference and test compounds in a range of doses from 100 nM to 10 uM). Fresh media was added 2× per week.
After 13 days the cells were harvested and extract prepared for analysis.
Differentiation supplement medium was changed every three to four days with fresh test compound addition each time. After seven to thirteen days, the amount of alkaline phosphatase produced by the cultures was quantified using commercial alkaline phosphatase reagent (ALP Reagent) and standard (Sigma M2266 and 245-10, respectively).
Cells were rinsed with 0.9% NaCl, and lysed in alkaline phosphatase assay buffer (150 mM Tris-HCl pH 8, 0.1 mM MgCl2, 0.1 mM ZnCl2, 1% Triton X-100). Prewarmed ALP Reagent was added to lysate or to serial dilutions of the alkaline phosphatase standard and incubated at 37° C. for 30 minutes.
The calorimetric endpoint of absorbance at 405 nm was read on a SpectraMax 340 microplate reader (Molecular Devices), and after extrapolation from standard curve, values were reported in units of enzyme activity per volume.

[4] = system: primary human osteoblasts; assay: nodule assay (Von Kossa staining) in primary human osteoblasts; settings: 28 days of treatment
Experimental: Primary human osteoblasts were cultured as for the alkaline phosphatase assay. After 28 days of test compound treatment, the cultures were fixed with 70% ethanol for 10 minutes, stained with 5% silver nitrate solution and exposed to bright light (Polaroid imaging system with 4×150 watt lamps) for 20 to 30 minutes. Wells were rinsed with water, air dried and nodules documented by micrographs at 300× magnification.

IC50 [1] | IC50 ([2]; SW1353, 24 h) | induction of alkaline phosphatase production/activity (in words) [3] | induction of alkaline phosphatase production/activity (in words) ([3]; listed as Hydrocortisone) | IC50 ([2]; SW1353 cells, 10 ng/ml IL-1β, 24 hours) | Compound | alkaline phosphatase expression, % of dexamethasone maximum ([3]; at 1 uM) | nodule formation / mineral deposition (Von Kossa staining, in words) [4]
~1 nM | ~1 nM |  |  |  | C[C@@H]1C[C@H]2[C@@H]3CCC4=CC(=O)C=C[C@]4(C)[C@@]3(F)[C@@H](O)C[C@]2(C)[C@@]1(O)C(=O)CO [dexamethasone] |  | 
 |  | stimulated | dose dependent increase | 60 nM | C[C@]12CCC(=O)C=C1CC[C@@H]1[C@@H]2[C@@H](O)C[C@@]2(C)[C@H]1CC[C@]2(O)C(=O)CO [hydrocortisone] | about 64% | dose-dependant nodule formation

— patent US20030224349A1, “Rapid assay to assess the potential for glucocorticoid analogs to promote the differentiation of human osteoblasts and predict bone safety” (Pfizer Inc., priority 2002, published 2003)
